Molecular target: Cannabinoid receptor 1 (Rattus norvegicus) (UniProt P20272)
Assay: Displacement of [3H][…] from CB1 receptor in Rattus norvegicus (rat) cerebellum homogenate at 100 uM after 2 hr by scintillation counting
Format: tissue-based
Details: not given

Sequence of Cannabinoid receptor 1 (Rattus norvegicus) (P20272 whole entry): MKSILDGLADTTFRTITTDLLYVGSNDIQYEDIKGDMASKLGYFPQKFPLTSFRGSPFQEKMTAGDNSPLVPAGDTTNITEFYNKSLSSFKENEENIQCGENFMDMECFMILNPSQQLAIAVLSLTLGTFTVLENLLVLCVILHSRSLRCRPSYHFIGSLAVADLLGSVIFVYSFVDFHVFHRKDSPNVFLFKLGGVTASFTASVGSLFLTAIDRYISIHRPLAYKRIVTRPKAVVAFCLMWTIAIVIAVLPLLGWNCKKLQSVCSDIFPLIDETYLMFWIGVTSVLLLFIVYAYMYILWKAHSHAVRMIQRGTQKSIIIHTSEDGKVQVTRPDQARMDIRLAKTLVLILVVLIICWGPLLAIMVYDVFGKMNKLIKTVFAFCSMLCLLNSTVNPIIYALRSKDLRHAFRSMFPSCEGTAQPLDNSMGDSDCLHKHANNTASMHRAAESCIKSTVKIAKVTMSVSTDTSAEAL

Row | Structure (SMILES) | inhibition
1 | CCCCOC(=O)n1nc(-c2ccc(Cl)cc2)c(-c2ccc(Cl)cc2Cl)n1 | 30%

Molecular target: Cannabinoid receptor 1 (Rattus norvegicus, UniProt P20272)
Assay: Displacement of [3H][…] from CB1 receptor in Rattus norvegicus (rat) cerebellum homogenate after 2 hr by scintillation counting
Format: tissue-based
Details: not given

Sequence of Cannabinoid receptor 1 (P20272 whole entry): as above

Row | Structure (SMILES) | Ki
2 | C=CCn1nnc(-c2ccc(Cl)cc2Cl)c1-c1ccc(Cl)cc1 | ND(Insoluble)
3 | CCC/C=C\Cn1nnc(-c2ccc(Cl)cc2Cl)c1-c1ccc(Cl)cc1 | ND(Insoluble)
4 | CCCCCCn1nnc(-c2ccc(Cl)cc2Cl)c1-c1ccc(Cl)cc1 | ND(Insoluble)

Same assay, conditions: read-out: Ki

Row | Structure (SMILES) | Ki
5 | FCCn1nc(-c2ccc(Cl)cc2)c(-c2ccc(Cl)cc2Cl)n1 | 79 nM
6 | Clc1ccc(-c2c(-c3ccc(Cl)cc3Cl)nnn2Cc2ccccc2)cc1 | 187 nM
7 | COC(=O)Cn1nc(-c2ccc(Cl)cc2)c(-c2ccc(Cl)cc2Cl)n1 | 855 nM
8 | FCCn1nnc(-c2ccc(Cl)cc2Cl)c1-c1ccc(Cl)cc1 | 421 nM
9 | OCCn1nc(-c2ccc(Cl)cc2)c(-c2ccc(Cl)cc2Cl)n1 | 660 nM
10 | Clc1ccc(-c2nn(Cc3ccccc3)nc2-c2ccc(Cl)cc2Cl)cc1 | 230 nM
11 | COC(=O)CCn1nc(-c2ccc(Cl)cc2)c(-c2ccc(Cl)cc2Cl)n1 | 2360 nM
12 | CCCn1nnc(-c2ccc(Cl)cc2Cl)c1-c1ccc(Cl)cc1 | 152 nM
13 | ClCCn1nc(-c2ccc(Cl)cc2)c(-c2ccc(Cl)cc2Cl)n1 | 80 nM
14 | COC(=O)Cn1nnc(-c2ccc(Cl)cc2Cl)c1-c1ccc(Cl)cc1 | 247 nM
15 | OCCn1nnc(-c2ccc(Cl)cc2Cl)c1-c1ccc(Cl)cc1 | 163 nM
16 | N#CCn1nc(-c2ccc(Cl)cc2)c(-c2ccc(Cl)cc2Cl)n1 | 232 nM

Molecular target: Cannabinoid receptor 1 (Rattus norvegicus) (UniProt P20272)
Assay: Displacement of [3H][…] from CB1 receptor in Rattus norvegicus (rat) cerebellum homogenate at 1 uM after 2 hr by scintillation counting
Format: tissue-based
Details: not given

Row | Structure (SMILES) | inhibition
17 | CCOC(=O)CCn1nc(-c2ccc(Cl)cc2)c(-c2ccc(Cl)cc2Cl)n1 | 22%
18 | N#CCCn1nc(-c2ccc(Cl)cc2)c(-c2ccc(Cl)cc2Cl)n1 | 26%
